Experimental data reported in PubChem BioAssay AID330 (DTP/NCI, 2004).
“And” between values parts separate entries of the source, which are not always exact repeats. Equal values may be shown once. Toxic doses and inconclusive results are not listed. The calls were made as follows: active = survival T/C of 150% or more; inactive = T/C below 125% in these data.

Tested on: P388 leukemia ip, CD2F1 mice, survival T/C
Assay: NCI In Vivo Anticancer Drug Screen. Data for tumor model P388 Leukemia (intraperitoneal) in CD2F1 (CDF1) mice
Conditions: endpoint: median survival time, higher = longer survival
Procedure, shortened: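 Mice carrying the transplanted tumor received test compound or vehicle. Survival was recorded in each group, and the value is the treated-group measurement divided by that of the vehicle-treated control group.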

[1] = dose: 100.0 mg/kg/injection, schedule: Q04DX003 (ip), vehicle: saline
[2] = dose: 200.0 mg/kg/injection, schedule: Q04DX003 (ip), vehicle: saline
[3] = dose: 400.0 mg/kg/injection, schedule: Q04DX003 (ip), vehicle: saline
[4] = dose: 50.0 mg/kg/injection, schedule: Q01DX005 (ip), vehicle: saline with Tween-80
[5] = dose: 100.0 mg/kg/injection, schedule: Q01DX005 (ip), vehicle: saline with Tween-80
[6] = dose: 200.0 mg/kg/injection, schedule: Q01DX005 (ip), vehicle: saline with Tween-80
[7] = dose: 12.5 mg/kg/injection, schedule: Q01DX009 (ip), vehicle: distilled water + Tween-80
[8] = dose: 25.0 mg/kg/injection, schedule: Q01DX009 (ip), vehicle: distilled water + Tween-80
[9] = dose: 50.0 mg/kg/injection, schedule: Q01DX009 (ip), vehicle: distilled water + Tween-80
[10] = dose: 100.0 mg/kg/injection, schedule: Q01DX009 (ip), vehicle: distilled water + Tween-80
[11] = dose: 50.0 mg/kg/injection, schedule: Q01DX009 (ip), vehicle: saline
[12] = dose: 100.0 mg/kg/injection, schedule: Q01DX009 (ip), vehicle: saline
[13] = dose: 200.0 mg/kg/injection, schedule: Q01DX009 (ip), vehicle: saline
[14] = dose: 50.0 mg/kg/injection, schedule: Q01DX005 (ip), vehicle: saline
[15] = dose: 100.0 mg/kg/injection, schedule: Q04DX002 (ip), vehicle: Klucel (hydroxypropylcellulose) (HPC)
[16] = dose: 200.0 mg/kg/injection, schedule: Q04DX002 (ip), vehicle: Klucel (hydroxypropylcellulose) (HPC)
[17] = dose: 400.0 mg/kg/injection, schedule: Q04DX002 (ip), vehicle: Klucel (hydroxypropylcellulose) (HPC)
[18] = dose: 50.0 mg/kg/injection, schedule: Q01DX009 (ip), vehicle: Klucel (hydroxypropylcellulose) (HPC)
[19] = dose: 100.0 mg/kg/injection, schedule: Q01DX009 (ip), vehicle: Klucel (hydroxypropylcellulose) (HPC)
[20] = dose: 200.0 mg/kg/injection, schedule: Q01DX009 (ip), vehicle: Klucel (hydroxypropylcellulose) (HPC)
[21] = dose: 400.0 mg/kg/injection, schedule: Q01DX009 (ip), vehicle: Klucel (hydroxypropylcellulose) (HPC)

Measured: T/C

Cn1nnc(C(=O)O)n1
inactive: dose: 50.0 mg/kg/injection, schedule: Q01DX001 (ip), vehicle: saline 100 % of control | dose: 100.0 mg/kg/injection, schedule: Q01DX001 (ip), vehicle: saline 100 % of control | [1] 103 % of control | dose: 200.0 mg/kg/injection, schedule: Q01DX001 (ip), vehicle: saline 101 % of control | [2] 103 % of control | [3] 100 % of control

Cc1ccc2c(c1)C(=Nc1ccc(Cl)cc1)C(=O)N2
inactive: dose: 0.93 mg/kg/injection, schedule: Q01DX005 (ip), vehicle: saline with Tween-80 101 % of control | dose: 1.87 mg/kg/injection, schedule: Q01DX005 (ip), vehicle: saline with Tween-80 93 % of control | dose: 3.75 mg/kg/injection, schedule: Q01DX005 (ip), vehicle: saline with Tween-80 87 % of control | dose: 15.0 mg/kg/injection, schedule: Q01DX005 (ip), vehicle: saline with Tween-80 87 % of control | dose: 60.0 mg/kg/injection, schedule: Q01DX005 (ip), vehicle: saline with Tween-80 99 % of control | dose: 120.0 mg/kg/injection, schedule: Q01DX005 (ip), vehicle: saline with Tween-80 87 % of control | dose: 240.0 mg/kg/injection, schedule: Q01DX005 (ip), vehicle: saline with Tween-80 95 % of control

O=C1OC(=O)C2C3c4ccccc4C(c4ccccc43)C12 (configuration not stated)
inactive: [4] 115 % of control and 117 % of control | [5] 110 % of control and 121 % of control | [6] 120 % of control and 122 % of control | dose: 400.0 mg/kg/injection, schedule: Q01DX005 (ip), vehicle: saline with Tween-80 121 % of control

O=C(Nc1ccc(Cl)cc1)Nc1nccs1
inactive: [7] 100 % of control | [8] 109 % of control | [9] 111 % of control | [10] 118 % of control

O=c1cc[nH]c2ccccc12
inactive: [11] 96 % of control | [12] 92 % of control | [13] 97 % of control

Clc1ccc(CN2COc3c(cc(Cl)c4cccnc34)C2)c(Cl)c1
inactive: dose: 100.0 mg/kg/injection, schedule: Q04DX003 (ip), vehicle: Klucel (hydroxypropylcellulose) (HPC) 102 % of control | dose: 200.0 mg/kg/injection, schedule: Q04DX003 (ip), vehicle: Klucel (hydroxypropylcellulose) (HPC) 87 % of control | dose: 400.0 mg/kg/injection, schedule: Q04DX003 (ip), vehicle: Klucel (hydroxypropylcellulose) (HPC) 87 % of control

OCCCOCCCO
inactive: [14] 109 % of control | dose: 100.0 mg/kg/injection, schedule: Q01DX005 (ip), vehicle: saline 101 % of control | dose: 200.0 mg/kg/injection, schedule: Q01DX005 (ip), vehicle: saline 114 % of control

CC1(C)O[P+]2(OC(C)(C)c3ccccc32)c2ccccc21
inactive: [15] 96 % of control | [16] 97 % of control | [17] 96 % of control

C[S+](C)CCCNC(=O)c1csc(CCNC(=O)c2ccccc2)n1
inactive: dose: 12.5 mg/kg/injection, schedule: Q04DX003 (ip), vehicle: saline + alcohol 95 % of control | dose: 25.0 mg/kg/injection, schedule: Q04DX003 (ip), vehicle: saline + alcohol 100 % of control | dose: 50.0 mg/kg/injection, schedule: Q04DX003 (ip), vehicle: saline + alcohol 100 % of control

CCOC(=O)c1cnc2cc3c(cc2c1Nc1cccc(C(F)(F)F)c1)OCO3
inactive: dose: 60.0 mg/kg/injection, schedule: Q01DX005 (ip), vehicle: Klucel (hydroxypropylcellulose) (HPC) 96 % of control | dose: 120.0 mg/kg/injection, schedule: Q01DX005 (ip), vehicle: Klucel (hydroxypropylcellulose) (HPC) 102 % of control | dose: 240.0 mg/kg/injection, schedule: Q01DX005 (ip), vehicle: Klucel (hydroxypropylcellulose) (HPC) 101 % of control

O=C1/C(=C\c2ccc([N+](=O)[O-])cc2)CS(=O)(=O)C/C1=C/c1ccc([N+](=O)[O-])cc1
inactive: dose: 25.0 mg/kg/injection, schedule: Q01DX009 (ip), vehicle: saline with Tween-80 95 % of control | dose: 50.0 mg/kg/injection, schedule: Q01DX009 (ip), vehicle: saline with Tween-80 94 % of control | dose: 100.0 mg/kg/injection, schedule: Q01DX009 (ip), vehicle: saline with Tween-80 105 % of control | dose: 200.0 mg/kg/injection, schedule: Q01DX009 (ip), vehicle: saline with Tween-80 116 % of control

CSc1cccc(NC(=O)Nc2nc3c(C)cccc3s2)c1
inactive: dose: 50.0 mg/kg/injection, schedule: Q01DX005 (ip), vehicle: Klucel (hydroxypropylcellulose) (HPC) 96 % of control | dose: 100.0 mg/kg/injection, schedule: Q01DX005 (ip), vehicle: Klucel (hydroxypropylcellulose) (HPC) 95 % of control | dose: 200.0 mg/kg/injection, schedule: Q01DX005 (ip), vehicle: Klucel (hydroxypropylcellulose) (HPC) 90 % of control

C=C1C(C(=O)OCC)=NNc2c(C(N)=O)ncn21
inactive: [15] 96 % of control | [16] 101 % of control | [17] 104 % of control

C=Cc1c2[n-]c(c1C)/C=C1\[N-]/C(=C3\c4[n-]c(c(C)c4C(=O)C3C(=O)O)/C=c3\[n-]/c(c(C)c3CC)=C\2)C(CCC(=O)O)C1C.[Pt+4] (configuration not stated)
inactive: dose: 50.0 mg/kg/injection, schedule: Q04DX002 (ip), vehicle: saline 100 % of control | dose: 100.0 mg/kg/injection, schedule: Q04DX002 (ip), vehicle: saline 90 % of control | dose: 200.0 mg/kg/injection, schedule: Q04DX002 (ip), vehicle: saline 88 % of control

C[n+]1ccc(CCNC2CCC(N=NC3CCC([N+](=O)[O-])CC3)CC2)cc1 (configuration not stated)
inactive: [11] 105 % of control and 92 % of control | [12] 108 % of control | [13] 102 % of control and 118 % of control

Cc1cc(Cl)ccc1N=Cc1ccc(C=Nc2ccc(Cl)cc2C)cc1
inactive: dose: 12.5 mg/kg/injection, schedule: Q01DX009 (ip), vehicle: Klucel (hydroxypropylcellulose) (HPC) 94 % of control | dose: 25.0 mg/kg/injection, schedule: Q01DX009 (ip), vehicle: Klucel (hydroxypropylcellulose) (HPC) 95 % of control | [18] 99 % of control

Cc1c(C)c2ccccc2[nH]c1=O
inactive: [18] 101 % of control | [19] 104 % of control | [20] 113 % of control | [21] 100 % of control

CC12CCC(=O)OC1(CO)C([Se]c1ccccc1)CC2CC(N)=O (configuration not stated)
inactive: [4] 93 % of control | [5] 91 % of control | [6] 91 % of control

O=C1CCc2nc3ccccc3c(=O)n21
inactive: [18] 96 % of control | [19] 96 % of control | [20] 94 % of control | [21] 100 % of control

NNC(=O)CCCO
inactive: dose: 50.0 mg/kg/injection, schedule: Q04DX003 (ip), vehicle: saline 105 % of control | [1] 98 % of control | [2] 103 % of control | [3] 105 % of control

COc1c2occc2c(NC(=O)C(Cl)(Cl)Cl)c2ccc(=O)oc12
inactive: dose: 5.0 mg/kg/injection, schedule: Q04DX002 (ip), vehicle: saline with Tween-80 102 % of control | dose: 10.0 mg/kg/injection, schedule: Q04DX002 (ip), vehicle: saline with Tween-80 101 % of control | dose: 20.0 mg/kg/injection, schedule: Q04DX002 (ip), vehicle: saline with Tween-80 102 % of control

COc1ccc2c(c1)[C@]1(C)CCN(C)[C@@H]1N2C
inactive: dose: 12.5 mg/kg/injection, schedule: Q01DX005 (ip), vehicle: saline 105 % of control | dose: 25.0 mg/kg/injection, schedule: Q01DX005 (ip), vehicle: saline 98 % of control | [14] 105 % of control

CN(C)C(OCCCC(=O)O)C(Cl)(Cl)Cl (configuration not stated)
inactive: [18] 113 % of control | [19] 96 % of control | [20] 109 % of control

COC(=O)c1ccc(Cl)cc1OC
inactive: [7] 101 % of control | [8] 99 % of control | [9] 99 % of control | [10] 101 % of control | dose: 200.0 mg/kg/injection, schedule: Q01DX009 (ip), vehicle: distilled water + Tween-80 101 % of control
